We go through 15 molecules from PMC9269118, “Chemical Constituents of the Flowers of Pueraria lobata and Their Cytotoxic Properties” (Plants, 2022).

In series [1] the test system is ovarian cancer cell line OVCAR3. The arrangement: method as in PMID 19005980. The note with it: cited from earlier work.
Series [2] concerns immortalized human ovarian surface epithelial cell line IOSE80PC. Kind of series: MTT cell viability assay, IOSE80PC. It is filed as cell-based. As to conditions: 48 h incubation, IOSE80PC cells. From the text: (§1) To identify anti-tumor constituents in Pueraria Flos, we examined the effects of the 25 isolates on the cell viability of the human ovarian cancer A2780 cell line using the MTT assay. […] To further evaluate the effect of the compounds on the cell viability of non-malignant ovarian epithelial cells, we explored the cytotoxicity of the eight compounds (8, 10, 11, 12, 14, 16, 17, and 21) against the immortalized human ovarian surface epithelial cell line IOSE80PC.
(§2) Human ovarian endometrioid adenocarcinoma cell line A2780 and immortalized ovarian surface epithelial cell line IOSE80PC were provided by Dr. Ie-Ming Shih (Johns Hopkins School of Medicine, Baltimore, MD, USA) and Dr. N. Auersperg (University of British Columbia, Vancouver, British Columbia, Canada), respectively. The cells were cultured in Roswell Park Memorial Institute (RPMI) 1640 supplemented with 5% fetal bovine serum (FBS), penicillin (100 U/mL), and streptomycin sulfate (100 μg/mL) in a 5% CO2 and 95% air humidified atmosphere at 37 °C. RPMI 1640, FBS, streptomycin sulfate, and penicillin were procured from Life Technologies Inc. (Grand Island, NY, USA). The cells were seeded at a density of 1.0 × 10^5 cells/mL in a 96-well plate containing 50 μL of RPMI medium in each well and incubated for 24 h. Various concentrations of compounds dissolved in dimethyl sulfoxide (DMSO) were mixed with RPMI 1640 medium and added into cells in each well. […] Following 48 h incubation, 50 μL of MTT (Molecular Probes Inc., Eugene, OR, USA) solution was added into each well to achieve a final concentration of 0.5 mg/mL and then incubated for an additional 4 h. The medium was discarded, and the formazan blue that formed in the cells was dissolved in 50 μL of DMSO. The optical density was measured at 540 nm by microplate spectrophotometer (SpectraMax; Molecular Devices, Sunnyvale, CA, USA). […] IC50 is defined as the concentration that reduces cell number by 50% compared to control cultures.

For series [3], the system named is VEGF expression. The arrangement: method as in PMID 19005980. As to conditions: cited from earlier work.
Series [4] deals with human ovarian cancer cell line A2780. Kind of series: MTT cell viability assay, A2780. As to conditions: 48 h incubation, A2780 cells. The format is cell-based.
Description: as §1, §2

Series [5] deals with breast cancer cell line MCF-7. The arrangement: method as in PMID 27784319, PMID 15787436. As to conditions: cited from earlier work.
In series [6] the test system is colon adenocarcinoma (SW-480). The arrangement: method as in doi:10.1016/0031-9422(93)85369-3, PMID 24018191. As to conditions: cited from earlier work.
The test system of series [7] is murine lymphocytic leukemia (P-388). The arrangement: method as in doi:10.1016/0031-9422(93)85369-3, PMID 24018191. As to conditions: cited from earlier work.
The test system of series [8] is MCF-7. The arrangement: method as in PMID 19026551. As to conditions: cited from earlier work.
Series [9] deals with (HEK293). The arrangement: method as in doi:10.1016/0031-9422(93)85369-3, PMID 24018191. As to conditions: cited from earlier work.
Series [10] relates to Lu1. The arrangement: method as in PMID 19026551. The note with it: cited from earlier work.
The subject of series [11] is LNCaP. The arrangement: method as in PMID 19026551. As to conditions: cited from earlier work.
Series [12] deals with ovarian cancer cell line A2780. The arrangement: method as in PMID 18974065, PMID 19447105. The note with it: by suppressing the expression of Id1 and focal adhesion kinase; cited from earlier work.

A value given as a limit tells only on which side of the number the result lay.

In the case of `O=c1c(-c2ccc(O)cc2)coc2cc(O)cc(O)c12` [Compound 10, genistein], the “cell proliferation in OVCAR3” value in series [1] is “inhibits cell proliferation”. Also, the IC50 in series [2] (Homo sapiens, IOSE-80PC) is greater than 100 µM. Moreover, in series [3], the “VEGF expression in OVCAR3” value is “downregulates VEGF expression”.
In series [4] (Homo sapiens, A2780, 48 h), `COc1c(OC2OC(COC3OCC(O)C(O)C3O)C(O)C(O)C2O)cc2occ(-c3ccc(O)cc3)c(=O)c2c1O` [Compound 15, tectorigenin-7-O-β-D-xylopyranosyl-(1→6)-O-β-D-glucopyronoside] showed a half-inhibitory concentration (IC50) greater than 100 µM.
With `COc1c(O)cc2occ(-c3ccc(O)c(O)c3)c(=O)c2c1O` [Compound 12, irilin D], the IC50 is greater than 100 µM in series [2] (Homo sapiens, IOSE-80PC); 57.5 ± 3.08 µM in series [4]; less than 100 µM in series [4] (Homo sapiens, A2780, 48 h). Further, in [5], the “anticancer activity in MCF-7” value was “anticancer activity”.
As for `COc1ccc(-c2coc3cc(OC4OC(CO)C(O)C(O)C4O)c(OC)c(O)c3c2=O)cc1` [Compound 14, irisolidone-7-O-β-D-glucopyranoside], the IC50 in series [2] (Homo sapiens, IOSE-80PC) was greater than 100 µM; in series [4], 71.2 ± 11.3 µM; in series [4] (Homo sapiens, A2780, 48 h), less than 100 µM.
Turning to `O=C1C[C@@](O)(c2ccc(O)cc2)Oc2cc(O)cc(O[C@@H]3O[C@H](CO)[C@@H](O)[C@H](O)[C@H]3O)c21` [Compound 6, 2-hydroxy-naringenin-5-O-β-D-glucopyranoside], in series [4] (Homo sapiens, A2780, 48 h), the IC50 was greater than 100 µM.
Regarding `C[C@@H]1O[C@@H](OC[C@H]2O[C@@H](Oc3c(-c4ccc(O)cc4)oc4cc(O)cc(O)c4c3=O)[C@H](O)[C@@H](O)[C@@H]2O)[C@H](O)[C@H](O)[C@H]1O` [Compound 9, nicotiflorin], in series [4] (Homo sapiens, A2780, 48 h), the IC50 is greater than 100 µM.
In [2] (Homo sapiens, IOSE-80PC), `COc1c(O)cc2occ(-c3ccc(O)cc3)c(=O)c2c1O` [Compound 11, tectorigenin] registered an IC50 greater than 100 µM.
In the case of `O=c1c(O)c(-c2ccc(O)c(O)c2)oc2cc(O)cc(O)c12` [Quercetin, quercetin, reference compound], the concentration for half-maximal inhibition (IC50) in series [2] (Homo sapiens, IOSE-80PC) is greater than 100 µM; in series [4] (Homo sapiens, A2780, 48 h), 19.4 ± 2.92 µM.
Regarding `C[C@@H]1O[C@@H](OC[C@H]2O[C@@H](OCc3ccccc3)[C@H](O)[C@@H](O)[C@@H]2O)[C@H](O)[C@H](O)[C@H]1O` [Compound 22, hydrageifolin I], in [4] (Homo sapiens, A2780, 48 h), the 50% inhibitory concentration (IC50) was greater than 100 µM.
As for `COc1cc([C@@H]2Oc3ccc(-c4cc(=O)c5c(O)cc(O)cc5o4)cc3O[C@H]2CO)ccc1O` [Compound 21, (-)-hydnocarpin], the “antiproliferative activity against SW-480” value in series [6] is “considerable antiproliferative activities”. Besides, the “antiproliferative activity against P-388” value in series [7] is “considerable antiproliferative activities”. Also, the IC50 in [2] (Homo sapiens, IOSE-80PC) was 65.8 ± 1.6 µM. The “cytotoxicity against MCF-7” value in series [8] is “no cytotoxicity”. Also, the “antiproliferative activity against HEK293” value in [9] is “considerable antiproliferative activities”. The “cytotoxicity against Lu1” value in series [10] is “no cytotoxicity”. For the same molecule, in series [11], the “cytotoxicity against LNCaP” value was “no cytotoxicity”.
Regarding `COc1cc2c(=O)c(-c3ccc(O)cc3)coc2cc1O` [Compound 16, glycitein], the 50% inhibitory concentration (IC50) in [2] (Homo sapiens, IOSE-80PC) is greater than 100 µM.
`O=c1cc(-c2ccc(O)cc2)oc2cc(O)cc(O)c12` [Compound 8, apigenin] yielded an IC50 in [2] (Homo sapiens, IOSE-80PC) greater than 100 µM. The “proliferation and migration of A2780” value in series [12] was “inhibits the proliferation and migration”.
Take `N.N.[Cl][Pt][Cl]` [Cisplatin, cisplatin, reference compound]: the results for the 50% inhibitory concentration (IC50) in series [2] and in series [4] were 12.8 ± 0.55 µM and 10.7 ± 0.81 µM, respectively.
With `COc1ccc(-c2coc3cc(O)c(OC)cc3c2=O)cc1` [Compound 17, afromosin], the half-maximal inhibitory concentration (IC50) in series [2] (Homo sapiens, IOSE-80PC) was greater than 100 µM. For the same molecule, in [5], the “anticancer activity in MCF-7” value is given as “anticancer activity”.
In [4] (Homo sapiens, A2780, 48 h), `COc1c(O[C@@H]2O[C@H](CO)[C@@H](O)[C@H](O)[C@H]2O)cc2occ(-c3ccc(O)cc3)c(=O)c2c1O` [Compound 13, tectoridin] displayed an IC50 greater than 100 µM.
